{"source": "paper PMC7323874", "about": "“Vancomycin Resistance Is Overcome by Conjugation of Polycationic Peptides” (Angewandte Chemie (International Ed. in English), 2020)", "key": {"[1]": {"system": "Staphylococcus aureus USA300 LAC", "assay": "microbe, parasite or virus in culture", "type": "cell-based", "conditions": "Staphylococcus aureus, MRSA / USA300, 24 h", "method": "(§1) Antimicrobial testing – Microdilution\nAntimicrobial testing was performed according to CLSI and EUCAST guidelines in microdilution.8-10 Therefore, all tested substances as well as controls were dissolved in water in different concentrations and serially diluted in MHB II (cation adjusted) on the 96-well plate. A logarithmic growing, overnight culture of the respective bacterial strain was used and adjusted to a McFarland corresponding to 1 × 10^8 cfu/ml. Afterwards the bacterial suspension was diluted to 1 ×10^6 cfu/ml and loaded on the 96-well polypropylene plates, resulting in a final bacterial concentration of 5 × 10^5 cfu/ml. After an incubation at 35 ± 1 °C for 18-20 hours (re-controlled after 24 hours) the MIC was determined as the lowest concentration without visible growth as described previously.11 For direct comparison of the tested substances, all results were calculated in mg/ml and mol/ml afterwards. […]\nResistance development study\n(§2) Resistance development in S. aureus was determined by passaging bacteria in increasing amounts of vancomycin, FU002 or, as control, fusidic acid. In principle, tubes with twofold dilutions of the compounds in 1 ml Muller Hinton broth were inoculated 1:100 with bacterial suspension. The tubes were then incubated for 24 h at 37 °C under shaking. After each passage, the tube with the highest compound concentration showing bacterial growth was used to inoculate the tubes of the next passage (1:100). The tube with the lowest compound concentration showing no growth was defined as the passage MIC. Passaging was stopped after 8 passages.\nFor the validation of possible side effects provoked by the conjugates, the cytotoxic effect of the lead candidate FU002 on human cells was assessed in a colorimetric viability assay. Different human cell types were used including kidney and liver cell lines as well as freshly isolated peripheral blood cells. Cells were seeded into 96-well microtiter plates at 2 x 10^4 cells/well and cultured overnight (18-24 h) in a […]"}, "[2]": {"system": "Staphylococcus aureus NCTC 10442", "assay": "Blocking experiments with Nα,Nε-diacetyl-Lys-D-Ala-D-Ala in microdilution", "type": "cell-based", "conditions": "at least 100-fold excess of Nα,Nε-Diacetyl-Lys-D-Ala-D-Ala, pre-incubation minimum 1 hour at room temperature", "method": "as §1\nAntimicrobial testing was performed according to CLSI and EUCAST guidelines in microdilution.8-10 Therefore, all tested substances as well as controls were dissolved in water in different concentrations and serially diluted in MHB II (cation adjusted) on the 96-well plate. A logarithmic growing, overnight culture of the respective bacterial strain was used and adjusted to a McFarland corresponding to 1 × 10^8 cfu/ml. Afterwards the bacterial suspension was diluted to 1 ×10^6 cfu/ml and loaded on the 96-well polypropylene plates, resulting in a final bacterial concentration of 5 × 10^5 cfu/ml. After an incubation at 35 ± 1 °C for 18-20 hours (re-controlled after 24 hours) the MIC was determined as the lowest concentration without visible growth as described previously.11 For direct comparison of the tested substances, all results were calculated in mg/ml and mol/ml afterwards.\nas §2, with “For blocking experiments with NΑ,NΕ-DIACETYL-LYS-D-ALA-D-ALA the tested substances were incubated directly on the dilution plate with at least 100-fold excess of Nα,Nε-Diacetyl-Lys-D-Ala-D-Ala for a minimum of 1 hour at room temperature. Afterwards, the procedure was performed as described above. As further control substance, the glycopeptide antibiotic teicoplanin was evaluated. […] Resistance” for “Resistance”, “Passaging was stopped after 8 passages.” left out\nFor the validation of possible side effects provoked by the conjugates, the cytotoxic effect of the lead candidate FU002 on human cells was assessed in a colorimetric viability assay. […]"}}, "note": "Like-named read-outs stand apart in the source and are kept apart here."}
{"molecule": "CC(=O)O[C@H]1C[C@@]2(C)[C@@H](C[C@@H](O)[C@H]3[C@@]4(C)CC[C@@H](O)[C@@H](C)[C@@H]4CC[C@@]32C)/C1=C(\\CCC=C(C)C)C(=O)O", "note": "[fusidic acid]", "values": [{"measurement": "MIC", "setting": "[1]; read-out: MIC after 8 passages", "value": 64, "unit": "µg/mL"}, {"measurement": "MIC", "setting": "[1]; read-out: initial MIC", "value": 0.125, "unit": "µg/mL"}]}
{"molecule": "teicoplanin", "values": [{"measurement": "effect of D-Ala-D-Ala binding motif on antibiotic activity", "setting": "[2]", "value": "suppresses the antibiotic activity"}]}
